Source: PMC7782499, “Progerinin, an optimized progerin-lamin A binding inhibitor, ameliorates premature senescence phenotypes of Hutchinson-Gilford progeria syndrome” (Communications Biology, 2021)

Assay: Maximum tolerated dose study in Beagle dogs, escalated-dose oral administration
Format: in vivo
Settings: both sexes, beagle, dog, in vivo; oral gavage, dose escalation
Excerpt: The protocol and procedures involving the care and use of animals in this study was reviewed and approved by IACUC of QuBEST BIO prior to conduct (Approval no.: QBSIACUC-A18142). During the study, the care and use of animals will be conducted in accordance with all applicable guidelines of Animal Welfare Act. Non-naive one male and one female Beagle dogs (~16–24 months old, original supplier: ORIENTBIO Co., Ltd, Korea) were selected from the stock colony and assigned for the study. The route of administration was the oral (by gavage) route, which is the anticipated clinical route of exposure. Test article formulations were administered once via oral gavage. The day of 1st dosing was designated as Day 1. Each dose was administered via a syringe attached with 12-french feeding tube. A dose volume of 5 ml/kg was used and individual dose volumes were based on the most recent body weight. Each dose was followed by a distilled water of 5 ml. Each animal was observed twice daily (a.m. and p.m.) for mortality and moribundity; findings were recorded as they were observed. Cage side observations were made for each animal once daily; abnormal findings were recorded. […] Body weights were measured prior to each dosing. […] Prior to dosing and ~24 h post each dose, blood was collected as the same method and frequency with hematology analysis using no anticoagulant and then serum was separated by centrifugation and stored at freezer until analyze (AU 400, Olympus, Japan; […] 744 Na^+/K^+/[…] Analyzer, SIEMENS, Germany). In terminal procedures, all surviving animals were returned to the stock colony without necropsy. Toxicity studies were performed by QuBEST BIO Co., Ltd (Yongin, Korea).
The objective of this study was to determine the maximum tolerated dose (MTD) of SLC-D011 following dose escalation by oral gavage to Beagle dogs.
The study group was detailed in Text Table 1.
Text Table 1. Study Group
Dose Level Dose Conc. No. of Animals†
Group Treatment (mg/kg) (mg/mL)
†: Animals were re-used for each dose with at least 4-day wash-out period.
The following parameters were evaluated in this study: mortality, clinical signs, body weights and clinical pathology parameters (hematology and serum biochemistry).
Mortality and Clinical Observations
All animals survived until end of the study. Test article-related clinical observations were limited to oily soft stool in the 100 mg/kg/day group animals and vomitus (frothy) and soft sto ol in the 400 […]
Clinical Pathology Parameters (Hematology and Serum Chemistry) […]
the 100 and 400 mg/kg group animals on approximately 24 hours post each dose, compared to pre […]
Based on the results of this study, the maximum tolerated dose (MTD) of SLC-D011 was considered to […]
Test article formulations were administered once via oral gavage. The day of 1st dosing was designated […]
Each dose was administered via a syringe attached with 12-french feeding tube. A dose volume of 5 mL/kg was used and individual dose volumes were based on the most recent body weight. Each dose was followed by a distilled water of 5 mL. […]
Each animal was observed twice daily (a.m. and p.m.) for mortality and moribundity; findings were recorded as they were observed. Cage side observations were made for each animal once daily; abnormal findings were recorded. Detailed observations were made for each animal once prior to treatment; abnormal findings (ranked/graded, if appropriate) or an indication the animal appears […]
Body weights were measured prior to each dosing. […]
Prior to each dosing and approximately 24 hours post each dose, blood samples for hematology examination were collected from the via cephalic vein into tubes with K2EDTA anticoagulant and […]
Parameters Unit Measurement Method
ⓐ RBC (Red blood cell count) 106/μL Electric Impedance […]
ⓒ HGB (Hemoglobin conc.) g/dL Cyanmethemoglobin […]

Which MTD does the source give for CC1(C)Oc2cc3oc(=O)ccc3cc2C[C@@H]1OC/C=C/c1ccccc1 [SLC-D011] here?
The MTD was > 400 mg/kg.
